In patent publication US20240124515A1, “ORALLY ACTIVE LEUKEMIA INHIBITORY FACTOR (LIF) ANTAGONISTS FOR THE TREATMENT OF CANCER” (Evestra, Inc., priority 2021, published 2024):
Like-named read-outs stand apart in the source and are kept apart here. One block for each compound: values may come before it.

Legend:
LIF/LIFR = settings: background; cited from earlier work
[1] = PK study, oral bioavailability in rats; type: in vivo, Sprague Dawley rats; settings: for bioavailability: Sprague Dawley, rat, plasma, po
From the text: For example, the oral bioavailability can be determined by the formula (1):
F=100*(AUCpo*Div/AUCiv*Dpo) (1)
where: F is bioavailability; AUCpo is dose-corrected area under curve of non-intravenous oral drug; Div is the intravenous dose; AUCiv is the area under the curve intravenous; and Dpo is the oral dose.

other steroid receptors = experiment: Binding to other steroid receptors; settings: Table 1
[2] = rodent pharmacokinetic (PK) studies
xenograft and PDX models = settings: background; cited from earlier work
MCF7/LIF cells = experiment: Effect on MCF7 cells with artificial LIF expression (FIG. 1); type: cell-based; settings: artificial expression of LIF in MCF7 cells
Protocol: (§1) The artificial expression of LIF in MCF7 cells (MCF7/LIF) made those cells vulnerable to LIF inhibitors (FIG. 1) such as compound 5 (EC905) and compound 13 (EC915)
(§2) In order to identify the mechanism of action of EC914, we checked cytotoxicity of these compounds in various cells lines and derived IC50 values. Briefly, 5×10^3 cells were seeded in 96-well plates and incubated with compounds (0.0001-10 μmol/L) or dimethyl sulfoxide (DMSO; 0.02% v/v) for 24, 48, and 72 hours at 37° C. and cell viability was measured using a Fluoroscan plate reader (Nair et al. Estrogen receptor-β activation in combination with letrozole blocks the growth of breast cancer tumors resistant to letrozole therapy. Steroids. 2011 July; 76(8):792-6).

[3] = tested on: NE-1.8 (neuro endocrine-like) prostate cancer cell line; experiment: Calcein AM fluorescent dye-based cell viability assay, NE-1.8 cells; settings: 96 hours, 50 nM to 250 nm EC914
Protocol: In one test, NE-1.8 (neuro endocrine-like) prostate cancer cell line was treated with compound 12 (EC914).
After 96 hours, the cell viability was observed using Calcein AM fluorescent dye-based cell viability assay. More than 50-80% of cell growth inhibition was observed from 50 nM to 250 nm concentration of EC914 compared to vehicle control. Similar growth inhibition trend was observed upon treatment with LIF inhibitor on the C42B prostate cancer cell line at 48 hrs.

[4] = tested on: triple negative breast cancer cells; experiment: Antiproliferative activity in TNBC cells; type: cell-based
Protocol: as §1, §2

pSTAT3 = experiment: Western blot of STAT3 phosphorylation (FIG. 2); type: cell-based
Protocol: It is believed that EC914 binds directly to LIFR and blocks LIF signaling. Binding of EC914 to LIFR was measured by microscale thermophoresis (MST). The binding kD was 174 nM (FIG. 3).
In brief, MDA-MB-231/BT549 cells were treated with compounds for 3 days at different concentrations (10, 100 nM) and cell lysates were separated by 8% SDS-PAGE and transferred to polyvinylidene difluoride membranes. Membranes were then incubated with primary antibodies including phosphorylated and/or total pSTAT3. After overnight incubation at 4° C., membranes were incubated with secondary antibodies. Immunoreactive bands were then visualized by the enhanced chemiluminescence (ECL) detection system (GE healthcare.

LIFR = molecular target: T1, LIFR (Homo sapiens, UniProt P42702); experiment: Microscale thermophoresis (MST) binding to LIFR
T1 sequence (P42702 45-1097): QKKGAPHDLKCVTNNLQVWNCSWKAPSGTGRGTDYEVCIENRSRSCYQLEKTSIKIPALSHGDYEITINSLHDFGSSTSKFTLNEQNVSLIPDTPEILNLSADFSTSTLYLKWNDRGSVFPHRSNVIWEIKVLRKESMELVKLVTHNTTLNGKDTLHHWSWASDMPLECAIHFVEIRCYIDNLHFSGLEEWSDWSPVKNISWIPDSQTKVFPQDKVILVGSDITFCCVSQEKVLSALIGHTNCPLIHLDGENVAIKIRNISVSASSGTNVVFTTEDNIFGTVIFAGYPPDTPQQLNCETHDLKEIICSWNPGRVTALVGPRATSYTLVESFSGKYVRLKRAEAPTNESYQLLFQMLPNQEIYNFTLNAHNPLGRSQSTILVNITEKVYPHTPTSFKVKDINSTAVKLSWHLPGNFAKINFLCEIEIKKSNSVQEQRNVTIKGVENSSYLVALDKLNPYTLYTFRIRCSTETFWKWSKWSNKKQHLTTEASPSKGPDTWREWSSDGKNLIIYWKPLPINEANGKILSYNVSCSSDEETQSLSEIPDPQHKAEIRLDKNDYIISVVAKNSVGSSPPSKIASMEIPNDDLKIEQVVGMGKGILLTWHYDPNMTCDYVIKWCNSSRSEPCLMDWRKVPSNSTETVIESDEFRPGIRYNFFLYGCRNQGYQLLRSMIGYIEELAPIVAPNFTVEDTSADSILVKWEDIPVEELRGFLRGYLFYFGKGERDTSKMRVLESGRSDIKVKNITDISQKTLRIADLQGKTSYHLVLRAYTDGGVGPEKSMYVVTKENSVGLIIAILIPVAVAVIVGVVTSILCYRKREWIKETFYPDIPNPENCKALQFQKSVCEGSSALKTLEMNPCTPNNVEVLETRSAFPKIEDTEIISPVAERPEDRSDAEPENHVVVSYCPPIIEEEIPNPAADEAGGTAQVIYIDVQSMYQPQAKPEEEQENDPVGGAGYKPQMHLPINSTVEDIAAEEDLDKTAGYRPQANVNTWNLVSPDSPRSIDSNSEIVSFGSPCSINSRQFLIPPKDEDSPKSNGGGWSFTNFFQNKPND
Protocol: Binding of EC914 to LIFR was measured by microscale thermophoresis (MST).

MDA-MB-231 xenograft = experiment: MDA-MB-231 tumor xenograft study; type: in vivo, athymic nude mice; settings: TNBC mouse xenograft model, initial 3 doses of 10 mg/kg, oral, FIG. 5
Protocol: Uniform suspensions of human breast cancer MDA-MB-231 cells (2×10^6) in 100 μL (0.02 carboxymethyl cellulose in phosphate buffered saline) were injected subcutaneously into the right and left flanks of 4- to 5-week-old female athymic nude mice (Charles River Laboratories). After 10 days, when the tumor […] reaches 100 mm^3, the mice were randomly allocated to 3 groups of each containing 6 animals. Group 1 served as the untreated control, groups 2 received EC914 orally at 10 mg/kg daily for 3 doses. All drug was formulated in a vehicle containing 58.5% Labrasol ALF, 22.5% Labrafil M, 1944 CS, 9% Capryol 90 and 10% water q.s. Tumors were allowed to reach palpability before drug intervention. Tumor size was measured every 3 days using digital Vernier Calipers and tumor volume was calculated using the ellipsoid formula [D×(d2)]/2, where D is the large diameter of the tumor and d represents the small diameter. On day 19, the mice were euthanized, and tumors were harvested for protein and gene expression studies since the control tumors reached maximum allowable size as the IACUC regulations (See FIG. 5).

HESE cells = experiment: Caspase-3/7 apoptosis assay (Caspase-Glo); type: cell-based; settings: Caspase-3/7 activity
Protocol: Caspase-3/7 activity in HESE cells was measured using Caspase-Glo assay kit (Promega), as described before (Bhaskaran et al, 2013). Briefly, cells were homogenized in homogenization buffer (25 mmol/L HEPES, pH 7.5, 5 mmol/L MgCl2, and 1 mmol/L EGTA), protease inhibitors, and the homogenate was centrifuged at 13,000 rpm at 4° C. for 15 minutes. To 10 μL of the supernatant containing protein was added to an equal volume of the assay reagent and incubated at room temperature for 2 hours. The luminescence was measured using a luminometer.

[5] = tested on: murine and human PCa cells; experiment: Viability and Incucyte Cytotox assay of PCa cells (FIG. 6); type: cell-based
From the text: FIG. 6A depicts a line graph showing significant decline in the viability of murine and human PCa cells upon treatment with EC914 and/or Docetaxel.

[6] = tested on: STAT1, STAT3, AKT, ERK, Myc, and tCyclinD1 proteins; experiment: Western blot of cellular signaling in PCa cells (FIG. 7A); type: cell-based; settings: no change in total proteins
Protocol: (§3) In this study, the cellular signaling disrupted upon EC 914 treatment was analyzed. […] Thus, cancer stemness enrichment upon DTX treatment might be abolished by LIF/LIFR signaling disruption through EC914 inhibitor.

[7] = tested on: MDR1, CD44, Sox2, ALDH1, and CD133; experiment: Western blot of CSC marker expression in PCa (FIG. 7C); type: cell-based
Protocol: as §3

[8] = tested on: 22Rv1 and cE2 mouse syngeneic cells; experiment: Prostate cancer tumor models in vivo (FIG. 9); settings: 22Rv1 and cE2 subcutaneous tumors in athymic nude mice
Protocol: 22Rv1 and cE2 mouse syngeneic cells were subcutaneously implanted in athymic nude mice (0.75×10^6/mice). Two weeks after post-implantation, mice were randomized into four groups. Group 1 mice received saline, whereas group 2 and group 3 mice received EC 914 (every alternative day) or DTX (once in 3 days) alone. Finally, group 4 mice were administered with both EC 914 and DTX. […] Based on this rationale, it is believed that LIFR is overexpressed in response to DTX treatment and induces resistance, and enriches the CSC population in metastatic CRPC.

SMILES: C#CC(F)(F)[C@]1(O)CC[C@H]2[C@@H]3CCC4=CC(=O)CCC4=C3[C@@H](c3ccc(C4CC4)cc3)C[C@@]21C [EC330]
LIF/LIFR mediated proliferation and tumor growth (LIF/LIFR): efficiently inhibited

SMILES: C#CC(F)(F)[C@]1(O)CC[C@H]2[C@@H]3CCC4=CC(=O)CCC4=C3[C@@H](c3ccc(-c4c(C)cc(C)cc4C)cc3)C[C@@]21C [EC359, reference compound]
oral bioavailability ([1]; Table 1): 16%
Binding to other steroid receptors (other steroid receptors): Low binding to PR
oral bioavailability [2]: 16%
efficacy in preclinical xenograft and PDX models (xenograft and PDX models): good efficacy

SMILES: C#CC(F)(F)[C@]1(O)CCC2C3CCC4=CC(=O)CCC4=C3[C@@H](c3cccc(-c4cccnc4)c3)C[C@@]21C (stereo partly shown) [EC905]
vulnerability of MCF7/LIF cells to LIF inhibitors (MCF7/LIF cells): vulnerable

Kd (LIFR; MST, FIG. 3, read-out: binding kD to LIFR): 174 nM
Kd (LIFR; Table 1, read-out: LIFR binding): 175 nM
bioavailability ([1]; PK studies in Sprague Dawley rats, FIG. 4): 87.9%
bioavailability ([1]; Table 1): 87.9%
Binding to other steroid receptors (other steroid receptors): No
SMILES: C#CC(F)(F)[C@]1(O)CCC2C3CCC4=CC(=O)CCC4=C3[C@@H](c3cccc(C#N)c3C)C[C@@]21C (stereo partly shown) [EC914]
cell growth inhibition compared to vehicle control [3]: 50-80%
antiproliferative activity [4]: potent antiproliferative activity
STAT3 phosphorylation (pSTAT3): reduced STAT3 phosphorylation
tumor burden (MDA-MB-231 xenograft): reduced tumors burden
percent of apoptosis induced (HESE cells): comparable to that of EC359
cytotoxicity of Docetaxel in PCa ([5]; 22Rv1 cells, Incucyte Cytotox assay, FIG. 6B): increases cytotoxicity of Docetaxel
viability of PCa cells ([5]; murine and human PCa cells, FIG. 6A): decreases viability
phosphorylation of STAT1 and STAT3 and of AKT, ERK, Myc, tCyclinD1 [6]: decreased
key CSC marker expression (MDR1, CD44, Sox2, ALDH1, CD133) [7]: specifically decreases
tumor growth [8]: inhibit tumor growth

SMILES: C#CC(F)(F)[C@]1(O)CCC2C3CCC4=CC(=O)CCC4=C3[C@@H](c3ccc(C#N)cc3C)C[C@@]21C (stereo partly shown) [EC915]
vulnerability of MCF7/LIF cells to LIF inhibitors (MCF7/LIF cells): vulnerable
